Data: ChEMBL document CHEMBL1148943, “Estrogenic and anticarcinogenic properties of kurarinone, a lavandulyl flavanone from the roots of Sophora flavescens” (J Nat Prod, 2004)

What was measured:
[1] = Cytotoxicity against human MCF7/6 cells at 40 uM after 72 hrs by SRB assay; format: functional; conditions: MCF7/6, 72 h
Estrogen receptor [2] = target: T1, Estrogen receptor (Homo sapiens, UniProt P03372); experiment: Estrogenic activity at human estrogen receptor expressing Saccharomyces cerevisiae carrying estrogen responsive sequence containing plasmid assessed as metabolism of chlorophenol res beta-D-galactopyranoside
T1 sequence (P03372 whole entry): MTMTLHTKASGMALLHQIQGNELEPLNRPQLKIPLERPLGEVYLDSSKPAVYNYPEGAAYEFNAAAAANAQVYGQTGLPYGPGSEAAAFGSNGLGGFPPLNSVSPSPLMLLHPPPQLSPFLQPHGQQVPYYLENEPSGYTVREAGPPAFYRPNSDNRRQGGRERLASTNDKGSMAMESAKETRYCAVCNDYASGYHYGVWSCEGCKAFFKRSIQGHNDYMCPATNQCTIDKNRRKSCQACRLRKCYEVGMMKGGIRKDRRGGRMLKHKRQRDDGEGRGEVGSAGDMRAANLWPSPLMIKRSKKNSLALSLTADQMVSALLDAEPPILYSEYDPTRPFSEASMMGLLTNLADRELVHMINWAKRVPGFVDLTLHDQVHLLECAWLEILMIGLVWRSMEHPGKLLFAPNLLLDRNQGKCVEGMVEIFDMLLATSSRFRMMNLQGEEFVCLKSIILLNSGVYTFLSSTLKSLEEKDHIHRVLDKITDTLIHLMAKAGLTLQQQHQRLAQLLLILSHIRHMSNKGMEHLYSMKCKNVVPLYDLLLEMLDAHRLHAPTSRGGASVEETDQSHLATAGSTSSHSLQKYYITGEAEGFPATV

Estrogen receptor [3] = target: T1, Estrogen receptor; experiment: Estrogenic activity at estrogen receptor in human Ishikawa Var-1 cells assessed as stimulation of alkaline phosphatase activity measured by metabolism of p-nitrophenol phosphatase after 72 hrs; format: cell-based
[4] = Cytotoxicity against human MCF7/6 cells at 80 uM after 72 hrs by SRB assay; format: functional; conditions: MCF7/6, 72 h
[5] = Cytotoxicity against human MCF7/6 cells after 72 hrs by SRB assay; format: functional, cell-based; conditions: MCF7/6, 72 h

Work on `C=C(C)C(CC=C(C)C)Cc1c(O)cc(OC)c2c1O[C@H](c1ccc(O)cc1O)CC2=O` (stereo not given in full) [KURARINONE] yielded an inhibition at 40 µM [1] of 60%, an EC50 (Estrogen receptor [2]) of 4.6 µM and an EC50 (Estrogen receptor [3]) of 1.66 µM. It also gave an inhibition at 80 µM [4] of over 80% and an IC50 [5] of 22.2 µM.
